Reference: patent US8455495B2, “Pyridazino-pyridinone compounds and methods of use” (Amgen Inc., priority 2008, dated 2013)
Like-named read-outs stand apart in the source and are kept apart here.

Tests used:
[1] = test system: production of IL-1β, IL-6, and TNF-α by PBMC activated with LPS; assay: Lipopolysaccharide-activated PBMC cytokine production assay; format: cell-based; details: Homo sapiens, read-out: IC50 in PBMC cytokine production assay
Procedure: Lipopolysaccharide-Activated Pbmc Cytokine Production Assay
Test compounds were evaluated in vitro for the ability to inhibit the production of IL-1β, IL-6, and TNF-α by PBMC activated with bacterial lipopolysaccharide (LPS). Fresh leukocytes were obtained from a local blood bank, and peripheral blood mononuclear cells (PBMCs) were isolated by density gradient centrifugation on Ficol-Paque Plus (Pharmacia).
Preparation of Test Compound Stock Solutions
All reagents were prepared in RPMI 1640+10% v/v human AB serum+1× Pens/Strep/Glu (assay medium). Test compounds were dissolved in 100% DMSO and serially diluted in 96-well polypropylene round bottom micro titer plates (drug plate). Serial dilutions were then diluted 1:250 into assay medium to a 4× working concentration. Compound serial dilutions were half-log, 10 point titrations with a final starting concentration of 1 μM.
Treatment of Cells with Test Compounds and Activation with Lipopolysaccharide
LPS was prepared to a 4× concentration in assay medium. 100 μl of PBMC (1×10^6 cells/ml) were plated in a 96-well polystyrene flat bottom micro titer tissue culture plate and incubated with 50 μl of 4× compound serial dilution for 1 hour at 37° C., 5% CO2 in a tissue culture incubator. 50 μl 4×LPS or control was added and the plates were incubated at 37° C., 5% CO2 in a tissue culture incubator for 18 hours. The final DMSO concentration was 0.1%. The total volume was 200 μL. The final LPS concentration was 100 ng/mL. After 18 hours culture supernatants were removed and IL-1β, IL-6, and TNF-α presence in the supernatants was quantified using MSD ECL based technology.
20 μL of culture supernatant were added to MSD plates, and incubated for one hour at room temperature. 20 μL of detection antibody diluted in antibody diluent (1 μg/mL), and 110 μL of 2× Read Buffer P was added, and incubated for one hour at RT. Electrochemiluminescence was measured using the SECTOR HTS Imager (MSD, Gaithersburg, Md.).
Compound IC50 values were calculated as follows: The proportion of cytokine production in the presence of compound compared to the cytokine production in the presence of the DMSO vehicle alone (Hi control) was calculated using the formula: Percent Control (POC)=(compound−average Lo)/(average Hi−average Lo)*100.

[2] = test system: collagen-induced arthritis; assay: Collagen-induced arthritis (CIA) model in rats; format: in vivo; details: Rattus norvegicus, 168 h, read-out: ED50 in rat CIA model
Procedure: Collagen-induced Arthritis (CIA) Model in Rats
Porcine type II collagen (10 mg) was dissolved in 0.1N acetic acid (5 mL) two days prior to use on a rotating plate in the refrigerator. Subsequently, collagen was emulsified 1:1 with Freund's incomplete adjuvant using an emulsification needle and glass syringes yielding a final concentration of 1 mg/mL.
Disease was induced in each animal by intradermal injection of emulsified collagen in IFA at 10 different sites (100 μL per site) over the back. The clinical onset of arthritis varied between days 10 to 12 as indicated by hind paw swelling and ambulatory difficulties. At onset (defined as Day 0), rats were randomized to treatment groups and therapy was initiated with drug or vehicle control as noted in table above. Rats were treated for 7 days and were sacrificed on Day 8.

[3] = test system: LPS-induced TNF-α production; assay: Inhibition of LPS-induced TNF-α production in rats; format: in vivo; details: Rattus norvegicus, read-out: ED50, inhibition of LPS-induced TNF-α production
Procedure: Inhibition of LPS-Induced TNF-α Production Rats
LPS was diluted in PBS (100 μg per rat). Rats (n=6) were pretreated with vehicle or compound (0.03, 0.1, 0.3 and 1.0 mg/kg, PO) 60 minutes prior to the injection of LPS (100 μg per rat/IV, tail vein). Blood was harvested via decapitation 90 minutes following the administration of LPS. Blood was centrifuged at 12,000 rpm for 12 minutes to obtain plasma. Plasma samples were stored at −80 C. TNF-α levels were determined by ELISA for treatment groups that received LPS. Rat TNF-α levels were analyzed using rat TNF-α CytoSet kit from Biosource International. ELISA was completed according to the manufacturer's instructions. The concentration of TNF-α was interpolated from absorbance using the standard curve generated. For each individual sample, the TNF value from the dilution series that fell in the most linear portion of the standard curve was chosen and used for data analysis. The limit of quantitation of the ELISA was 1,000 pg/mL.

[4] = test system: TNF-α production by LPS-activated THP1 cells; assay: Lipopolysaccharide-activated THP1 cell TNF production assay; format: cell-based; details: Homo sapiens, read-out: IC50 in THP-1 cellular TNF production assay
Procedure: Lipopolysaccharide-Activated THP1 Cell TNF Production Assay
THP1 cells were resuspended in fresh THP1 media (RPMI 1640, 10% heat-inactivated FBS, 1×PGS, 1×NEAA, plus 30 μM βME) at a concentration of 1.5×10^6 cells per mL. One hundred microliters of cells per well were plated in a polystyrene 96-well tissue culture plate. 1.5 micrograms per mL of bacterial LPS was prepared in THP1 media and transferred to the first 11 columns of a 96-well polypropylene plate. Column 12 contained only THP1 media for the LO control. Compounds were dissolved in 100% DMSO and serially diluted 3 fold in a polypropylene 96-well microtiter plate (drug plate). Columns 6 and 12 were reserved as controls (HI controls and LO controls respectively) and contained only DMSO. 10 μL of LPS followed by one microliter of inhibitor compound from the drug plate was transferred to the cell plate. The treated cells were induced to synthesize and secrete TNF-α in a 37° C. humidified incubator with 5% CO2 for 3 hours. Fifty microliters of conditioned media was transferred to a 96-well MULTI-ARRAY™ 96-well small spot plate—custom coated with MAB610 containing 100 μL of 2× Read Buffer P supplemented with 0.34 nM AF210NA polyclonal Ab labeled with ruthenium (MSD—Sulfo-TAG™—NHS ester). After an overnight incubation at room temperature with shaking, the reaction was read on the Sector Imager™ 6000. […] The amount of secreted TNF-α in the presence of test compounds compared with that in the presence of DMSO vehicle alone (HI control) was calculated using the formula: % control (POC)=(cpd−average LO)/(average HI−averageLO)*100. Data (consisting of POC and inhibitor concentration in μM) was fitted to a 4-parameter equation (y=A+((B−A)/(1+((x/C)^D))), where A is the minimum y (POC) value, B is the maximum y (POC), C is the x (cpd concentration) at the point of inflection and D is the slope factor) using a Levenburg-Marquardt non-linear regression algorithm.

recombinant human p38α = recombinant human p38α (Homo sapiens, UniProt Q16539); assay: Purified and activated recombinant human p38α HTRF assay; format: biochemical; details: 1 nM p38α, 50 μM ATP, GST-ATF2 substrate, read-out: p38a IC50
Procedure: Purified and Activated Recombinant Human p38α Assay Kinase Reaction Buffer: […] HTRF Detection Buffer: […] Serial Dilution of Compounds: […] Columns 6 and 12 (HI controls and LO controls respectively) in the drug plate were reserved as controls and contained only DMSO. Kinase Reaction: […] See table below for actual concentrations. In the absence of substrate, the background was measured as LO control. […] Assay Reagent Concentrations: […] HTRF Detection: […] After 60 minutes incubation at room temperature, the assay plate was read in a Discovery Plate Reader. The wells were excited with coherent 320 nm light and the ratio of delayed ([…] post excitation) emissions at […] (native europium fluorescence) and 665 nm (europium fluorescence transferred to allophycocyanin-an index of substrate phosphorylation) was determined (Park et al, 1999). Data Analysis: […] Data (consisting of POC and inhibitor concentration in μM) was fitted to a 4-parameter equation ([…]))), where A is the minimum y (POC) value, B is the maximum y (POC), C is the x (compound concentration) at the point of inflection and D is the slope factor, using a Levenburg-Marquardt non-linear regression algorithm. The inhibition constant (Ki) of the inhibitor was estimated from the IC50 (compound concentration at the point of inflection C) using the Cheng-Prussof equation: […] All results were expressed as the mean±the standard error of the mean. Data acquisition and non-linear regression algorithms were performed using Activity Base v5.2 and XL-fit software v4.1 respectively. All data was archived using Activity Base v5.2 software.

[5] = test system: TNF-α induced IL-8 in 50% human whole blood; assay: Inhibition of TNF-α induced IL-8 in 50% human whole blood; format: cell-based; details: TNF-α (1 nM) induced IL-8, 50% human whole blood, 16-18 h, read-out: WB TNF/IL8 IC50
Procedure: Inhibition of TNF-α Induced IL-8 in 50% Human Whole Blood
Test compounds were evaluated in vitro for the ability to inhibit the production of secreted IL-8 by whole blood activated with TNF-α. Fresh human whole blood was obtained from healthy, non-medicated volunteers in sodium heparin tubes.
Compound Dilution—Assay Procedure
Test compounds are serially diluted 1:3 in DMSO and then diluted 1:250 into R10 (RPMI 1640, 10% human serum AB, 1× pen/strep/glutamine) to the 4× working concentration to be used in the assay. 100 ul heparinized whole blood is plated into wells of 96 well flat bottom plates. 50 ul of either 4× compound or DMSO control (Final DMSO concentration is 0.1%) are added to the appropriate wells. Plates are incubated for 1 hour at 37 degrees Celsius. 50 ul of 4×TNF-α (4 nM TNF-α, for a final concentration of 1 nM) or control (media alone) is added to the appropriate wells (Total volume=200 ul). Plates are incubated overnight (16-18 hours). 100 ul of supernatant is collected and stored in 96-well round bottom polypropylene plates at −80 degrees Celsius or assayed immediately for IL-8.
Cytokines are measured on antibody (Ab) sandwich ECL based 96-well detection plates. 20 ul of supernatant are added to plate and plate is sealed and shaken at RT for 1 hour. 130 ul of detection Ab cocktail is added and plates are sealed and shaken for 1 hour in the dark at RT. Plates are read on MSD Sector HTS instrument. Data are analyzed and IC50 values generated using Activity Base and X1-fit programs.

[6] = THP-1, THP1 cells, LPS, 3 hours

recombinant human p38α, sequence (Q16539 whole entry): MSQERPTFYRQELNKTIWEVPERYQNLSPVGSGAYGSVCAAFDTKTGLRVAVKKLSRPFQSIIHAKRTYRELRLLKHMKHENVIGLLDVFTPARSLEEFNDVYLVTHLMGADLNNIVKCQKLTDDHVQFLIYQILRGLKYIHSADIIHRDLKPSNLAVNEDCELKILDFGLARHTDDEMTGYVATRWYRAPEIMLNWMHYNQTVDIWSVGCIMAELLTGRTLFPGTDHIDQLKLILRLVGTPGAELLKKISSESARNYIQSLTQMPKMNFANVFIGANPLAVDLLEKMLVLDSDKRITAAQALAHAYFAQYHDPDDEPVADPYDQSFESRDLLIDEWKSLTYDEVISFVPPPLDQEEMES

SMILES	IC50 ([1]; LPS 100 ng/mL, 18 hours) [nM]	ED50 ([2]; rats, treated for 7 days from onset of arthritis) [mg/kg]	ED50 ([3]; rats, compound PO 60 minutes prior to LPS IV, plasma TNF-α 90 minutes after LPS) [mg/kg]	IC50 [4, 6] [nM]	IC50 (recombinant human p38α) [nM]	IC50 [5] [nM]	IC50 ([1]; 18 h) [nM]	ED50 [3] [mg/kg]	IC50 ([4]; THP-1, 3 h) [nM]	ED50 [2] [mg/kg]
Cc1c(F)cc(C(=O)NC2CC2)cc1-c1cc2cnnc(-c3ccccc3Cl)c2n(C)c1=O [Example 14, 3-(8-(2-chlorophenyl)-1-methyl-2-oxo-1,2-dihydropyrido[2,3-d]pyridazin-3-yl)-N-cyclopropyl-5-fluoro-4-methylbenzamide]	≤ 1000	0.03	0.02	≤ 1000	2.4	–	–	–	–	–
Cc1ccc(C(=O)NC2CC2)cc1-c1cc2cnnc(-c3cc(F)ccc3Cl)c2n(C)c1=O [Example 18, 3-(8-(2-chloro-5-fluorophenyl)-1-methyl-2-oxo-1,2-dihydropyrido[2,3-d]pyridazin-3-yl)-N-cyclopropyl-4-methylbenzamide]	≤ 1000	–	–	≤ 1000	1.7	2.2	–	–	–	–
Cc1c(F)cc(C(=O)NC2CC2)cc1-c1cc2cnnc(-c3ccc(F)cc3F)c2n(C)c1=O [Example 3, N-cyclopropyl-3-(8-(2,4-difluorophenyl)-1-methyl-2-oxo-1,2-dihydropyrido[3,2-d]pyridazin-3-yl)-5-fluoro-4-methylbenzamide]	–	–	–	–	1.7	–	≤ 1000	0.04	≤ 1000	–
Cc1ccc(C(=O)NC2CC2)cc1-c1cc2cnnc(-c3ccc(F)cc3F)c2n(C)c1=O [Example 1, N-cyclopropyl-3-(8-(2,4-difluorophenyl)-1-methyl-2-oxo-1,2-dihydropyrido[3,2-d]pyridazin-3-yl)-4-methylbenzamide]	–	–	–	–	2.3	–	≤ 1000	0.06	≤ 1000	0.03
